Assay results as given in patent US8299097B2, “Methods for treating inflammatory disorders” (The Brigham and Women's Hospital, Inc., priority 2008, dated 2012).

What was measured:
human CysLT1R = target: T1, human CysLT1R (Homo sapiens, UniProt Q9Y271); assay: ERK activation in CysLT1R CHO transfectants; type: cell-based
T1 construct: expressed in transfected cells
T1 sequence (Q9Y271 1-337): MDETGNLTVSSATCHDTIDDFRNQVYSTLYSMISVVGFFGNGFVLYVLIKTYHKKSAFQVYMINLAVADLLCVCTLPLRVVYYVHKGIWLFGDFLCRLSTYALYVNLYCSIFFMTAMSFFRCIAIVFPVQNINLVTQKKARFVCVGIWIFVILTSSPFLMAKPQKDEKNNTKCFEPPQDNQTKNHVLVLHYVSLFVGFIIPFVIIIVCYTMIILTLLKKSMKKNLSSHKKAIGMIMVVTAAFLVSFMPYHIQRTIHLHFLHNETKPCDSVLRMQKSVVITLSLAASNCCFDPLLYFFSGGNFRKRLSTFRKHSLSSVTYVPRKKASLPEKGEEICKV
Protocol: FIG. 1. Activation by recombinant human P2Y12 receptors in response to cys-LTs. The human P2Y12 receptor cDNA was cloned in forward and reverse orientation into the expression vector pEF1/His B and transfected into CHO cells using Fugene HD reagent. Stably-expressing clones were selected using G418 (1000 μg/ml), and expression of the construct was confirmed by cytofluorographic detection of the HIS tag. 1A. […] 1B. SDS-PAGE immunoblots showing phosphorylation of ERK2 by CHO cells stably expressing human P2Y12 receptors in reverse (negative control) or forward orientations. […] The blots were stripped and re-probed with an antibody (Ab) recognizing total ERK1 and ERK2. […] 1C. Effect of the selective P2Y12 receptor antagonist 2-MesAMP (MeS) on ligand-induced ERK phosphorylation. P2Y12 receptor expressing CHO cells were stimulated with the same doses of agonists used in 1A, in the absence or presence of 2-MesAMP (100 μM). 1D. Comparison of P2Y12 receptor-mediated responses to cys-LTs with those of recombinant human CysLT1R and CysLT2R expressed in CHO cells, and the effect of the CysLT1R antagonist MK571 (1 μM).
A P2Y12 receptor cDNA was amplified by reverse transcriptase polymerase chain reaction (RT-PCR) from RNA extracted from primary hMCs and cloned into a mammalian expression vector. Expression was confirmed by detection of a histidine (HIS) tag by flow cytometry. […]

p2ry12^−/− mice = assay: LTE4 amplification of pulmonary inflammation in p2ry12^−/− mice and C57BL/6 controls; type: in vivo, mouse
Protocol: (§1) FIG. 4. […] 4A. […] Clopidogrel (500 μg/ml) was added to the drinking water of the indicated groups of mice for 72 h before the first intranasal dose of LTs, and was maintained throughout the treatment. Results are mean±SEM from at least 9 mice in each group. The experiments were repeated three times with similar results. 4B. PAS stains (left column) from representative mice in the indicated groups showing the effect of clopidigrel on goblet cell metaplasia. Higher magnification images of H & E stains (right) from the same animals showing cellular characteristics of the bronchovascular infiltrates. 4C. Effect of clopidogrel administration on the steady-state expression of IL-13 and MUC5AC mRNA as determined by real-time PCR of whole lung RNA extracted 24 h after the last OVA challenge of the indicated groups. Data are mean±SEM from 4-5 mice/group from a single experiment. Results in a second experiment were similar 4D-4F. […] 4D. Total cell numbers (top), percentages of eosinophils (middle), and total numbers of eosinophils in BAL fluid recovered 24 h after the last challenge with OVA. 4E. Goblet cell metaplasia (top) and representative PAS stains (bottom) from wild-type and p2ry12^−/− mice subjected to the same protocol. 4E. Inflammation scores from the same mice. Data in 4D-4F are from 4 mice per group. […] Quantitative assessment of bronchovascular inflammation as determined by H & E stains. […]

Cysltr1/Cysltr2^−/− mice = assay: LTE4 amplification of pulmonary inflammation in mice lacking both CysLT1R and CysLT2R; type: in vivo, mouse
Protocol: as §1

Structure (SMILES) | effect on cys-LT-induced ERK activation (human CysLT1R) | potentiation of BAL fluid eosinophilia, goblet cell metaplasia and bronchovascular infiltration (p2ry12^−/− mice; WT C57BL/6 controls) | potentiation of BAL fluid eosinophilia, goblet cell metaplasia and bronchovascular infiltration (p2ry12^−/− mice; p2ry12^−/− mice) | potentiation of OVA-induced BAL fluid eosinophilia, goblet cell metaplasia and inflammation (Cysltr1/Cysltr2^−/− mice)
CN(C)C(=O)CCSC(SCCC(=O)O)c1cccc(/C=C/c2ccc3ccc(Cl)cc3n2)c1 (stereo not shown) [MK571] | susceptible |  |  | 
CCCCC/C=C\C\C=C/C=C/C=C/[C@@H](SC[C@H](N)C(=O)O)[C@@H](O)CCCC(=O)O [LTE4] |  | potentiated | severely blunted | completely intact
